# From patent publication US8455397B2, “Penoxsulam as a turfgrass, vineyard and orchard floor herbicide” (Dow AgroSciences, LLC, priority 2005, dated 2013)
# Tests used:
# white clover (TRFRE) [1] = assay: Granule carrier/particle size, post emergence greenhouse study; format: in vivo, Trifolium repens L.; conditions: postemergent greenhouse
# Protocol: (§1) Greenhouse and field studies evaluated the effect of two granule carriers and two particles sizes on the postemergent broadleaf activity of penoxsulam. The two carriers were a 46-0-0 and 28-4-12 fertilizer blend and the particle sizes averaged 0.75 mm and 2.15 mm.
# (§2) Greenhouse studies were applied both post and pre-emergence to broadleaf weeds and sedge reared from seed or nutlet in 12.7″ (32.25 cm) by 8.8″ (22.35 cm) flats of a loam soil. Particle size and carrier were evaluated post emergence, carrier comparisons with the smaller particle size of 0.75 was evaluated pre-emergence. Stage of growth of species at post emergence application: PLAMA and TAROF in the 3 to 5 leaf stage, TRFRE in the 3rd tri-foliate stage and CYPES in the 3 to 4 leaf stage. Post emergence trial design was a replicated block, one species per flat, 3 replicate flats per treatment. Granule treatments were uniformly applied to individual flats on an area basis using a common hand-shaker method. Post emergence applications were made to the flat covering both soil and misted foliage. Trial was sub-irrigated daily, and watered over the top 1 time per week starting 7 days after application to simulate a natural rainfall event. Active weed growth was maintained throughout the study period. Weed control of each species in the post emergence study was assessed at 2, 3 and 4 weeks after treatment. Pre-emergence trial design was 2 species per flat, 4 replicate flats, block design. Pre-emergence applications were made to the soil surface using a common hand shaker method on an area basis. Overhead irrigation was maintained throughout the trial. Weed control of each species in the pre-emergence study was assessed at 2, 3, 4 and 5 weeks after application. Control was determined visually by comparing treated and untreated flats and scored on a 0 to 100 percent scale where 0 corresponds to no control and 100 corresponds to complete kill.
# white clover (TRFRE) [2] = assay: Granule carrier comparison, pre-emergence greenhouse study; format: in vivo, Trifolium repens L.; conditions: pre-emergent greenhouse
# Protocol: as §1, §2
# white clover (TRFRE) [3] = assay: Granule carrier/particle size, postemergent field study; format: in vivo, Trifolium repens L.
# Protocol: as §1
# (§3) Field studies were conducted in established turfgrass sites containing a natural population of target broadleaf weeds. Replicated trials, containing a minimum of three replications and having individual plots ranging in size from 25 to 50 ft. sq (2.3 to 4.6 square meters), were initiated in the late spring when turf and weeds were actively growing. Granule treatments were uniformly applied to individual plots using a common hand-shaker method. Applications were made in the early morning when dew was present. Natural rainfall and supplemental irrigation were used to maintain healthy turf and active weed growth throughout the study period. Control of each weed species in the study site was made at 2, 4 and 8 weeks after treatment. Control was determined visually by comparing treated and untreated weeds and scored on a 0 to 100 percent scale where 0 corresponds to no control and 100 corresponds to complete kill.
# [4] = test system: pennywort (dollarweed) (HYDSS); assay: as above; format: in vivo, Hydrocotyle spp
# Protocol: as §1, §3
# [5] = test system: Hydrocotyle species (HYDSS); assay: Post emergent synergy field study, penoxsulam + dicamba granule; format: in vivo; conditions: average of 2 studies 4 weeks after application
# Protocol: as §3, with “Field and greenhouse studies were conducted to determine if there may be any synergistic response when penoxsulam is combined with other herbicides for post emergence broadleaf or sedge control. Field” for “Field”
# Component A was penoxsulam at 0.02 or 0.04 lb ai/A. Component B was dicamba at 0.1 lb ai/A. Individual products and mixture were applied on a 30-3-4 granule fertilizer formulated to deliver 116 pounds fertilizer per acre (129 kg per hectare). Loadings for the individual component on the fertilizer were: • Penoxsulam 22.4 gai/Ha (0.02 lb ai/A)=0.017% • Penoxsulam 44.9 gai/Ha (0.04 lb ai/A)=0.034% • Dicamba 112 gae/Ha (0.1 lb ai/A)=0.086%
# For combinations the same loadings were applied to the same granule carrier and applied as a single product to test area.
# sun spurge (EPHHE) = assay: Pre-emergence orchard floor weeds, greenhouse study; format: in vivo, Euphorbia helioscopia; conditions: 28 Days After Application
# Protocol: (§4) Greenhouse studies were conducted by seeding species in a loam soil and applying the herbicides to the soil surface using a Cornwall 5 milliliter glass syringe fitted with a TeeJet TN-3 nozzle on an area basis Immediately following herbicide application the pots were irrigated over the top to move the herbicides into the seeding zone. Pots were kept well irrigated throughout the trial. A percent visual weed control assessment was taken 4 weeks after application. Control was determined visually by comparing treated and untreated pots and scored on a 0 to 100 percent scale where 0 corresponds to no control and 100 corresponds to complete kill, or no emergence.
# common mallow (MALNE) = assay: as above; format: in vivo, Malva neglecta; conditions: 28 Days After Application
# Protocol: as §4
# [6] = carrier 28-4-12, particle size 0.75 mm, 5.6 gai/Ha
# [7] = carrier 28-4-12, particle size 0.75 mm, 11.2 gai/Ha
# [8] = carrier 28-4-12, particle size 0.75 mm, 22.4 gai/Ha
# [9] = carrier 28-4-12, particle size 2.15 mm, 11.2 gai/Ha
# [10] = carrier 28-4-12, particle size 2.15 mm, 22.4 gai/Ha
# [11] = carrier 46-0-0, particle size 0.75 mm, 5.6 gai/Ha
# [12] = carrier 46-0-0, particle size 0.75 mm, 11.2 gai/Ha
# [13] = carrier 46-0-0, particle size 0.75 mm, 22.4 gai/Ha
# [14] = carrier 46-0-0, particle size 2.15 mm, 11.2 gai/Ha
# [15] = carrier 46-0-0, particle size 2.15 mm, 22.4 gai/Ha
smiles,measurement,setting,value
"COc1cnc(OC)n2nc(NS(=O)(=O)c3c(OCC(F)F)cccc3C(F)(F)F)nc12 [Penoxsulam, 2-(2,2-difluoroethoxy)-N-(5,8-dimethoxy[1,2,4]triazolo[1,5-c]-pyrimidin-2-yl)-6-(trifluoromethyl)benzenesulfonamide]",Percent Weed Control 27-30 DAA,white clover (TRFRE) [1]; [6],40%
same,Percent Weed Control 27-30 DAA,white clover (TRFRE) [1]; [7],57%
same,Percent Weed Control 27-30 DAA,white clover (TRFRE) [1]; [8],68%
same,Percent Weed Control 27-30 DAA,"white clover (TRFRE) [1]; carrier 28-4-12, particle size 2.15 mm, 5.6 gai/Ha",12%
same,Percent Weed Control 27-30 DAA,white clover (TRFRE) [1]; [9],38%
same,Percent Weed Control 27-30 DAA,white clover (TRFRE) [1]; [10],58%
same,Percent Weed Control 27-30 DAA,white clover (TRFRE) [1]; [11],22%
same,Percent Weed Control 27-30 DAA,white clover (TRFRE) [1]; [12],58%
same,Percent Weed Control 27-30 DAA,white clover (TRFRE) [1]; [13],72%
same,Percent Weed Control 27-30 DAA,"white clover (TRFRE) [1]; carrier 46-0-0, particle size 2.15 mm, 5.6 gai/Ha",5%
same,Percent Weed Control 27-30 DAA,white clover (TRFRE) [1]; [14],33%
same,Percent Weed Control 27-30 DAA,white clover (TRFRE) [1]; [15],37%
same,Percent Weed Control 35 DAA,white clover (TRFRE) [2]; [6],80%
same,Percent Weed Control 35 DAA,white clover (TRFRE) [2]; [7],98%
same,Percent Weed Control 35 DAA,white clover (TRFRE) [2]; [8],99%
same,Percent Weed Control 35 DAA,white clover (TRFRE) [2]; [11],55%
same,Percent Weed Control 35 DAA,white clover (TRFRE) [2]; [12],75%
same,Percent Weed Control 35 DAA,white clover (TRFRE) [2]; [13],98%
same,Percent Weed Control 26-27 DAA,white clover (TRFRE) [3]; [7],80%
same,Percent Weed Control 26-27 DAA,white clover (TRFRE) [3]; [8],97%
same,Percent Weed Control 26-27 DAA,white clover (TRFRE) [3]; [9],48%
same,Percent Weed Control 26-27 DAA,white clover (TRFRE) [3]; [10],70%
same,Percent Weed Control 26-27 DAA,white clover (TRFRE) [3]; [12],82%
same,Percent Weed Control 26-27 DAA,white clover (TRFRE) [3]; [13],95%
same,Percent Weed Control 26-27 DAA,white clover (TRFRE) [3]; [14],34%
same,Percent Weed Control 26-27 DAA,white clover (TRFRE) [3]; [15],78%
same,Percent Weed Control 26-27 DAA,[4]; [7],56%
same,Percent Weed Control 26-27 DAA,[4]; [8],70%
same,Percent Weed Control 26-27 DAA,[4]; [9],49%
same,Percent Weed Control 26-27 DAA,[4]; [10],42%
same,Percent Weed Control 26-27 DAA,[4]; [12],44%
same,Percent Weed Control 26-27 DAA,[4]; [13],87%
same,Percent Weed Control 26-27 DAA,[4]; [14],38%
same,Percent Weed Control 26-27 DAA,[4]; [15],75%
same,% Control Component A,[5]; 22.4 gai/Ha on 30-3-4 granule fertilizer,37%
same,% Control Component A,[5]; 44.9 gai/Ha on 30-3-4 granule fertilizer,59%
same,Pre-emergent Percent Mean Control,sun spurge (EPHHE); 8.8 gai/Ha,87%
same,Pre-emergent Percent Mean Control,sun spurge (EPHHE); 17.5 gai/Ha,97%
same,Pre-emergent Percent Mean Control,sun spurge (EPHHE); 35 gai/Ha,98%
same,Pre-emergent Percent Mean Control,sun spurge (EPHHE); 70 gai/Ha,100%
same,Pre-emergent Percent Mean Control,common mallow (MALNE); 8.8 gai/Ha,60%
same,Pre-emergent Percent Mean Control,common mallow (MALNE); 17.5 gai/Ha,92%
same,Pre-emergent Percent Mean Control,common mallow (MALNE); 35 gai/Ha,95%
same,Pre-emergent Percent Mean Control,common mallow (MALNE); 70 gai/Ha,98%
